# Assay results from patent US11160796B2, “Anti-androgens for the treatment of non-metastatic castration-resistant prostate cancer” (priority 2017, dated 2021).
# Read-outs that look alike come from different tables or passages of the source.
# Columns and labels:
# [1] = tested on: organic cation transporter 2 (OCT2), organic anion transporter 3 (OAT3) and multidrug and toxin extrusions (MATEs); assay: In vitro transporter inhibition: OCT2, OAT3, MATEs; format: in vitro ADME
# P-gp = P-gp (Homo sapiens, UniProt P08183); assay: In vitro transporter substrate assessment: P-gp
# plasma proteins = assay: Plasma protein binding; conditions: no concentration dependency
# [2] = tested on: BCRP, OATP1B1, and OATP1B3; assay: In vitro transporter substrate assessment: BCRP, OATP1B1, OATP1B3
# [3] = target: T1, organic anion transporter 1 (OAT1) (Homo sapiens, UniProt Q4U2R8); assay: In vitro transporter inhibition: OAT1
# T1 sequence (Q4U2R8 1-563): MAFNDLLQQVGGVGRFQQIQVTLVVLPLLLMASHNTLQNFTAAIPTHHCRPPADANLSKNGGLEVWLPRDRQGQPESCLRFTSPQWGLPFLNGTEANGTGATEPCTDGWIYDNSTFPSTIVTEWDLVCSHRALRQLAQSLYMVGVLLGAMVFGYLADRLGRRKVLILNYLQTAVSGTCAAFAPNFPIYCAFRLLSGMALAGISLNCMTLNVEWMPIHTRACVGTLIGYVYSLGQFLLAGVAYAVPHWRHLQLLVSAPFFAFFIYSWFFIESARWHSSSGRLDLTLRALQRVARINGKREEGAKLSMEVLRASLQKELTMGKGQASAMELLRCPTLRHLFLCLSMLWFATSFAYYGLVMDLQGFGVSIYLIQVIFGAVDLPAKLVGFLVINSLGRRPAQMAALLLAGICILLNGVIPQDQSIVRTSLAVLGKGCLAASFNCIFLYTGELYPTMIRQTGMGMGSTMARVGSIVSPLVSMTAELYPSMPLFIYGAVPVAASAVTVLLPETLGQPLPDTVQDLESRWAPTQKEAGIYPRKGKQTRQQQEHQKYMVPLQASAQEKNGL
# CYP1A2 and CYP2D6 = assay: In vitro effect on CYP1A2 and CYP2D6; conditions: therapeutically relevant concentrations
# [4] = Preclinical pharmacokinetic profile; format: in vivo; conditions: relative to apalutamide
# [5] = human, in vivo
# human CYP2B6 and CYP3A4 = assay: CYP induction in vitro (hepatocytes)
# CYP2B6 and CYP2C8 = assay: In vitro CYP inhibition: CYP2B6 and CYP2C8
# [6] = tested on: CYP2C9, CYP2C19, and CYP3A4; assay: In vitro CYP inhibition: CYP2C9, CYP2C19, CYP3A4
# [7] = Single oral administration of 14C-labeled apalutamide 240 mg (metabolite profile, excretion)
# androgen receptor (AR) = androgen receptor (AR) (Homo sapiens, UniProt P10275); conditions: cited from earlier work
# [8] = human, in vivo, po, 240 mg
# [9] = listed as N-desmethyl metabolite
# Sequence of androgen receptor (AR) (P10275 whole entry): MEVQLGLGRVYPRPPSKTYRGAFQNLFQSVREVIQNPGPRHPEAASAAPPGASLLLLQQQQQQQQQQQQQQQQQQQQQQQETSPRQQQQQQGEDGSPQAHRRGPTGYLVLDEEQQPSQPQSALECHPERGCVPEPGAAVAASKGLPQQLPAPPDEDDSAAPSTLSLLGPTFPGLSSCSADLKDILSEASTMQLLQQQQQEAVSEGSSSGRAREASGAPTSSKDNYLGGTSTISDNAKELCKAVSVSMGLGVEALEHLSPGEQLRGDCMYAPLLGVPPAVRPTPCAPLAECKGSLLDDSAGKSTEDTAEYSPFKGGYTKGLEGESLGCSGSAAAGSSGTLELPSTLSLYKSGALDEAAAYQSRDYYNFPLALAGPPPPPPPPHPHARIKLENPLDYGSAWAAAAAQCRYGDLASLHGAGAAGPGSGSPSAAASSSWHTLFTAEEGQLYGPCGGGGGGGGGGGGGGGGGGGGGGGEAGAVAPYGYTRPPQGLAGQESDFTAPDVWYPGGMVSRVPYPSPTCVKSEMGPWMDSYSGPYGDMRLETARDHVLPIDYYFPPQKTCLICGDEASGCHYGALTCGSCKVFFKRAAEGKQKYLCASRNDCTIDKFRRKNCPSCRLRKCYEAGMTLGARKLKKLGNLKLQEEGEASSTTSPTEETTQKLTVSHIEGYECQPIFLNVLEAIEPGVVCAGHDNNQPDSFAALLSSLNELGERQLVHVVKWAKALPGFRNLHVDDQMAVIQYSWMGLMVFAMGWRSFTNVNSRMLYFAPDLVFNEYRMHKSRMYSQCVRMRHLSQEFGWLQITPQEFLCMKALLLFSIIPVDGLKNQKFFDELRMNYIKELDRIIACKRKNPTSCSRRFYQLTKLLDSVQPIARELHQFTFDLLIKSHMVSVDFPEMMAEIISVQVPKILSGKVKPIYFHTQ
# Sequence of P-gp (P08183 whole entry): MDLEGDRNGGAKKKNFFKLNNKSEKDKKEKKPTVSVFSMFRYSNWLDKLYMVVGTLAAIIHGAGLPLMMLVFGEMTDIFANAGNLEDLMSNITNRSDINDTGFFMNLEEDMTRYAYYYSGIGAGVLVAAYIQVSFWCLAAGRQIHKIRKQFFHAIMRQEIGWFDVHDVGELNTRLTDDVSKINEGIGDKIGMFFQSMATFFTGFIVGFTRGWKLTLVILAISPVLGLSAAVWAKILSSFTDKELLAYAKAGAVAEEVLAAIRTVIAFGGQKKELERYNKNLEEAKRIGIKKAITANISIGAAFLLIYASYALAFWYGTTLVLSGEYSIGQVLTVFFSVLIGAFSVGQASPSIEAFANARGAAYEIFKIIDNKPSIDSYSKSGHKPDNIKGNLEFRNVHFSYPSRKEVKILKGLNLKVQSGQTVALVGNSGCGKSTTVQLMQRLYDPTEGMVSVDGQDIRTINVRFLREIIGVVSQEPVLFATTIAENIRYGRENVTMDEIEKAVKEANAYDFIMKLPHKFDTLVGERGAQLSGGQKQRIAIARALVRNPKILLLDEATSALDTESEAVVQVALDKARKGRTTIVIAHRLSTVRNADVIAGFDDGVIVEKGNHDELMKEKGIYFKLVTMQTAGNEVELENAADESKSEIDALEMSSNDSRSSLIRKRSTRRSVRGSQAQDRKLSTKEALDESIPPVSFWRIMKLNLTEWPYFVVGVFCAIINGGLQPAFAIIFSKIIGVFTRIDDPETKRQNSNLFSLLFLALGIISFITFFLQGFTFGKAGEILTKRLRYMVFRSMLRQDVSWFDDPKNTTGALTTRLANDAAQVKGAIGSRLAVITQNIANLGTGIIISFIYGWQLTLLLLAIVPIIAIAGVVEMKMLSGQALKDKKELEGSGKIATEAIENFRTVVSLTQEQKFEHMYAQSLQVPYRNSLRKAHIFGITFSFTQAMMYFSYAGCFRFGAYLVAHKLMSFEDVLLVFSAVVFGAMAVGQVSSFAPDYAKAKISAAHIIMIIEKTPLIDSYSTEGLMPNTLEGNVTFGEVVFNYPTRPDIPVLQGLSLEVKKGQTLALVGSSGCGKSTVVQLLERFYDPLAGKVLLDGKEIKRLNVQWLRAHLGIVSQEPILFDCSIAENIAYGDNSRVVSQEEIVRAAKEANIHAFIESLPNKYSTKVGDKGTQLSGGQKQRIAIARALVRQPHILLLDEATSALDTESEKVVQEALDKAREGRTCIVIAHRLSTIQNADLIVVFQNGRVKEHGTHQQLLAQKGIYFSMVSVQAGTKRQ
compound,measurement,setting,value
N-desmethyl apalutamide,"inhibition of OCT2, OAT3 and MATEs",[1],inhibit
same,"inhibition of OCT2, OAT3 and MATEs",[1]; [9],cannot be excluded
same,substrate for P-gp,P-gp,substrates for P-gp
same,bound to plasma proteins,plasma proteins,95%
same,"substrate for BCRP, OATP1B1, and OATP1B3",[2],"not BCRP, OATP1B1, and OATP1B3"
same,inhibition of OAT1,[3],do not inhibit
same,inhibition of OAT1,[3]; [9],No in vitro inhibition
same,effect on CYP1A2 and CYP2D6,CYP1A2 and CYP2D6,do not affect
same,elimination half-life,[4],longer elimination half-life than apalutamide
same,"AUC at steady-state, mean",[5],124 µg·h/mL
same,"Cmax at steady-state, mean",[5],5900 ng/mL
same,differences in pharmacokinetics in specific populations,[5],No clinically significant differences
same,"AUC at steady-state, mean",[5]; 240 mg,124 µg·h/mL
same,"Cmax at steady-state, mean",[5]; 240 mg,5900 ng/mL
same,induction of human CYP2B6 and CYP3A4 in hepatocytes,human CYP2B6 and CYP3A4; concentrations up to 30 μM,inducers
same,CYP3A4 and CYP2B6 induction,human CYP2B6 and CYP3A4; in vitro studies,moderate to strong CYP3A4 and CYP2B6 inducers
same,inhibition of CYP2B6 and CYP2C8,CYP2B6 and CYP2C8,moderate inhibitors
same,"inhibition of CYP2C9, CYP2C19, and CYP3A4",[6],weak inhibitors
same,share of the total 14C-AUC in plasma,[7]; single oral 240 mg,44%
same,% of dose in feces as this compound,[7]; up to 70 days,2%
same,% of dose in urine as this compound,[7]; up to 70 days,2.7%
CC(O)c1cc(C(=O)N[C@@H](C)Cn2ccc(-c3ccc(C#N)c(Cl)c3)n2)[nH]n1 (some centres unmarked) [Darolutamide],binding affinity to AR,androgen receptor (AR),high affinity
N#Cc1ncc(N2C(=O)C3(CCC3)N(c3ccc(C(=O)O)c(F)c3)C2=S)cc1C(F)(F)F [inactive carboxylic acid metabolite],share of the total 14C-AUC in plasma,[8],3%
